This assay deals with T1, human CH24H (Homo sapiens, UniProt Q9Y6A2).
T1 construct: Using Full-Length Mammalian Gene Collection No. 4819975 (Invitrogen) as a template; made in house; host or cells: FreeStyle 293-F cells (transient transfection); cell lysate supernatant, not purified
Description: Measurement of CH24H inhibitory activity (24-HC produced from [14C] cholesterol by human CH24H lysate). Conditions: test compound 1 μM, [14C] cholesterol 15 μM, 37° C., 5 hr, read-out: Inhibitory Rate (%) in 1 μM. In kind it is biochemical. The method, then: The expression of human CH24H was performed using FreeStyle 293 Expression System (Invitrogen). According to the manual attached to FreeStyle 293 Expression System and using the plasmid DNA for human CH24H expression (pcDNA3.1(+)/hCH24H) constructed in Experimental Example 1, a transient expression using FreeStyle 293-F cell was performed. After transfection, the cells were cultured at 37° C., 8% CO2 with shaking at 125 rpm for 2 days. The cells were collected by centrifugation, and suspended in a suspension buffer (100 mM potassium phosphate (pH 7.4), 0.1 mM EDTA, 1 mM DTT, 20% Glycerol). The suspended product was disrupted by a polytron homogenizer (manufactured by Kinematica), and centrifuged at 9000×g for 10 min, and the supernatant was collected. The collected supernatant was cryopreserved (−80° C.) as a human CH24H lysate standard product.
For the measurement of CH24H inhibitory activity, using the human CH24H lysate prepared in Experimental Example 2, the amount of 24-HC produced from cholesterol by catalytic activity of CH24H was measured in the presence of a test compound, and compared with that measured in the absence of the test compound. That is, a test compound solution at various concentrations was mixed with a reaction buffer (50 mM potassium phosphate containing 0.1% BSA and Complete, EDTA-free, pH 7.4) and human CH24H lysate. Then, [^14C] cholesterol (53 mCi/mmol specific activity, 15 μM) was added, and CH24H reaction was performed at 37° C. for 5 hr. After completion of the reaction, a quenching solution consisting of chloroform/methanol/distilled water (2:2:1 v/v) was added, and the resulting 24-HC was extracted by shaking. The extract was applied to silica gel thin layer chromatography (ethyl acetate:toluene=4:6), and the obtained ^14C-24HC fraction was measured with BAS2500 (Fujifilm Corporation).
The inhibitory rate (%) was calculated from the ratio of radioactivity in the presence of a test compound relative to the radioactivity in the absence of the test compound.

T1 sequence (Q9Y6A2 whole entry): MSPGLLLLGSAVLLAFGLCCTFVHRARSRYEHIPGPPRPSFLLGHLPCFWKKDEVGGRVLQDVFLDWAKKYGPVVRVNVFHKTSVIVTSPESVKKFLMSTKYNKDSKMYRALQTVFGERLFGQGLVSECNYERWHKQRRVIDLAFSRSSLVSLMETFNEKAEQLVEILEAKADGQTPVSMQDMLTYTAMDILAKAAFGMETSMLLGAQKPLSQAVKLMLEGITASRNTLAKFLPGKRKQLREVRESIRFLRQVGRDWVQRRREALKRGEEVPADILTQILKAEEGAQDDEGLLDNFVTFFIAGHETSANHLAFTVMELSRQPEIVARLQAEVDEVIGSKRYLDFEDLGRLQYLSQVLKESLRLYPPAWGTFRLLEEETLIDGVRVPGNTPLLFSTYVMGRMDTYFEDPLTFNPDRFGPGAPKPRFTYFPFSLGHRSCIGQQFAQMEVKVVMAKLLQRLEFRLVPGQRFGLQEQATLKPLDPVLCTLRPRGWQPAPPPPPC

For `O=C(NCc1ccccc1)c1nnc2c(-c3cnco3)cc(C(F)(F)F)cn12` [Example 107, N-benzyl-8-(1,3-oxazol-5-yl)-6-(trifluoromethyl)[1,2,4]triazolo[4,3-a]pyridine-3-carboxamide], the inhibition at 1 µM turned out to be 89%.
The result for `O=C(c1cnc2c(-n3cncn3)cc(C(F)(F)F)cn12)N1C[C@@H]2C[C@H]1CO2` [Example 128, (1S,4S)-2-oxa-5-azabicyclo[2.2.1]hept-5-yl(8-(1H-1,2,4-triazol-1-yl)-6-(trifluoromethyl)imidazo[1,2-a]pyridin-3-yl)methanone] reads 86%; that for `O=C(c1cnc2c(-n3cncn3)cc(C(F)(F)F)cn12)N1C2CCC1COC2` [Example 142, 3-oxa-8-azabicyclo[3.2.1]oct-8-yl(8-(1H-1,2,4-triazol-1-yl)-6-(trifluoromethyl)imidazo[1,2-a]pyridin-3-yl)methanone], 87%.
For the compound `O=C(c1cnc2c(-c3cnco3)cc(F)cn12)N1C2CCC1COC2` [Example 138, (6-fluoro-8-(1,3-oxazol-5-yl)imidazo[1,2-a]pyridin-3-yl)(3-oxa-8-azabicyclo[3.2.1]oct-8-yl)methanone], the inhibition at 1 µM was 82%.
Next, `O=C(c1cnc2c(-c3cnco3)cc(C3CC3)cn12)N1C2CCC1COC2` [Example 143, (6-cyclopropyl-8-(1,3-oxazol-5-yl)imidazo[1,2-a]pyridin-3-yl)(3-oxa-8-azabicyclo[3.2.1]oct-8-yl)methanone]: 91%.
The result for `O=C(c1cnc2c(-c3cnco3)cc(C(F)(F)F)cn12)N1C2COCC1COC2` [Example 176, 3,7-dioxa-9-azabicyclo[3.3.1]non-9-yl(8-(1,3-oxazol-5-yl)-6-(trifluoromethyl)imidazo[1,2-a]pyridin-3-yl)methanone] reads 94%; that for `CCOC(=O)c1cnc2c(-c3cnco3)cc(C(F)(F)F)cn12` [Example 1, ethyl 8-(1,3-oxazol-5-yl)-6-(trifluoromethyl)imidazo[1,2-a]pyridine-3-carboxylate], 86%; that for `O=C(c1cnc2c(-c3cnco3)cc(Cl)cn12)N1C[C@@H]2C[C@H]1CO2` [Example 92, (6-chloro-8-(1,3-oxazole-5-yl)imidazo[1,2-a]pyridin-3-yl)((1S,4S)-2-oxa-5-azabicyclo[2.2.1]hept-5-yl)methanone], 86%.
The result for `O=C(C1CC1)n1ccc2c(-c3cnco3)cc(C(F)(F)F)cc21` [Example 4, cyclopropyl(4-(1,3-oxazol-5-yl)-6-(trifluoromethyl)-1H-indol-1-yl)methanone] reads 88%.
Regarding `O=C(c1cnc2c(-c3cnco3)cc(C(F)(F)F)cn12)N1CCOCC1` [Example 16, morpholin-4-yl(8-(1,3-oxazol-5-yl)-6-(trifluoromethyl)imidazo[1,2-a]pyridin-3-yl)methanone], the inhibition at 1 µM is 87%.
Consider `O=C(NC1CCOCC1)c1cnc2c(-c3cnco3)cc(C(F)(F)F)cn12` [Example 44, 8-(1,3-oxazol-5-yl)-N-(tetrahydro-2H-pyran-4-yl)-6-(trifluoromethyl)imidazo[1,2-a]pyridine-3-carboxamide], for which the inhibition at 1 µM worked out at 93%.
Regarding `CN(C(=O)c1cnc2c(-c3cnco3)cc(C(F)(F)F)cn12)C1CCOCC1` [Example 47, N-methyl-8-(1,3-oxazol-5-yl)-N-(tetrahydro-2H-pyran-4-yl)-6-(trifluoromethyl)imidazo[1,2-a]pyridine-3-carboxamide], the inhibition at 1 µM was 92%.
`Cc1cc(-c2cnco2)n2ncc(C(=O)N3C[C@@H]4C[C@H]3CO4)c2c1` [Example 126, (5-methyl-7-(1,3-oxazol-5-yl)pyrazolo[1,5-a]pyridin-3-yl)((1S,4S)-2-oxa-5-azabicyclo[2.2.1]hept-5-yl)methanone]: the inhibition at 1 µM was 93%.
The result for `O=C(c1cnc2c(-c3cnco3)cc(C(F)(F)F)cn12)N1CC(F)C1` [Example 177, (3-fluoroazetidin-1-yl)(8-(1,3-oxazol-5-yl)-6-(trifluoromethyl)imidazo[1,2-a]pyridin-3-yl)methanone] reads 86%; that for `O=C(c1cnc2c(-c3cnco3)cc(C(F)(F)F)cn12)N1C2COCC1C2` [Example 86, 3-oxa-6-azabicyclo[3.1.1]hept-6-yl(8-(1,3-oxazol-5-yl)-6-(trifluoromethyl)imidazo[1,2-a]pyridin-3-yl)methanone], 95%.
As to `O=C(c1cnc2c(-c3cnco3)cc(C(F)(F)F)cn12)N1CC(F)(F)C1` [Example 21, (3,3-difluoroazetidin-1-yl)(8-(1,3-oxazol-5-yl)-6-(trifluoromethyl)imidazo[1,2-a]pyridin-3-yl)methanone], the inhibition at 1 µM turned out to be 99%.
Turning to `CC(=O)c1cc(-c2cnco2)c2ncc(C(=O)N3C[C@@H]4C[C@H]3CO4)n2c1` [Example 155, 1-(3-((1S,4S)-2-oxa-5-azabicyclo[2.2.1]hept-5-ylcarbonyl)-8-(1,3-oxazol-5-yl)imidazo[1,2-a]pyridin-6-yl)ethanone], the inhibition at 1 µM is 84%.
Take `O=C(c1cnc2c(-c3cnco3)cc(C(F)(F)F)cn12)N1CC2(COC2)C1` [Example 22, 2-oxa-6-azaspiro[3.3]hept-6-yl(8-(1,3-oxazol-5-yl)-6-(trifluoromethyl)imidazo[1,2-a]pyridin-3-yl)methanone]: the inhibition at 1 µM is 93%.
The result for `O=C(c1cnc2c(-c3cnco3)cc(C(F)(F)F)cn12)N1C[C@@H]2C[C@H]1CO2` [Example 71, (1S,4S)-2-oxa-5-azabicyclo[2.2.1]hept-5-yl(8-(1,3-oxazol-5-yl)-6-(trifluoromethyl)imidazo[1,2-a]pyridin-3-yl)methanone] reads 88%.
Next, `Cc1cc(-c2cnco2)c2ncc(C(=O)N3C[C@@H]4C[C@H]3CO4)n2c1` [Example 78, (6-methyl-8-(1,3-oxazol-5-yl)imidazo[1,2-a]pyridin-3-yl)((1S,4S)-2-oxa-5-azabicyclo[2.2.1]hept-5-yl)methanone]: 94%; `O=C(c1cnc2c(-c3cn[nH]c3)cc(C(F)(F)F)cn12)N1C[C@@H]2C[C@H]1CO2` [Example 134, (1S,4S)-2-oxa-5-azabicyclo[2.2.1]hept-5-yl(8-(1H-pyrazol-4-yl)-6-(trifluoromethyl)imidazo[1,2-a]pyridin-3-yl)methanone]: 71%; `O=C(Nc1ccccc1)c1cnc2c(-c3cnco3)cc(C(F)(F)F)cn12` [Example 74, 8-(1,3-oxazol-5-yl)-N-phenyl-6-(trifluoromethyl)imidazo[1,2-a]pyridine-3-carboxamide]: 96%.
The result for `O=C(c1cnc2c(-c3cnco3)cc(C(F)F)cn12)N1C[C@@H]2C[C@H]1CO2` [Example 171, (6-(difluoromethyl)-8-(1,3-oxazol-5-yl)imidazo[1,2-a]pyridin-3-yl)((1S,4S)-2-oxa-5-azabicyclo[2.2.1]hept-5-yl)methanone] reads 91%.
For the compound `O=C(c1cnc2c(-c3cnco3)cc(C(F)(F)F)cn12)N1CC[C@H](OCC(F)F)C1` [Example 90, ((3S)-3-(2,2-difluoroethoxy)pyrrolidin-1-yl)(8-(1,3-oxazol-5-yl)-6-(trifluoromethyl)imidazo[1,2-a]pyridin-3-yl)methanone], the inhibition at 1 µM was 91%.
The result for `O=C(c1cnc2c(-c3cnco3)cc(C(F)(F)F)cn12)N1CC[C@H](O)C1` [Example 87, ((3S)-3-hydroxypyrrolidin-1-yl)(8-(1,3-oxazol-5-yl)-6-(trifluoromethyl)imidazo[1,2-a]pyridin-3-yl)methanone] reads 94%.
Next, `O=C(c1nnc2c(-c3cnco3)cc(C(F)(F)F)cn12)N1C[C@@H]2C[C@H]1CO2` [Example 58, (1S,4S)-2-oxa-5-azabicyclo[2.2.1]hept-5-yl(8-(1,3-oxazol-5-yl)-6-(trifluoromethyl)[1,2,4]triazolo[4,3-a]pyridin-3-yl)methanone]: 80%; `O=C(c1cnc2c(-c3cnco3)cc(-c3cnco3)cn12)N1C[C@@H]2C[C@H]1CO2` [Example 93, (6,8-di(1,3-oxazol-5-yl)imidazo[1,2-a]pyridin-3-yl)((1S,4S)-2-oxa-5-azabicyclo[2.2.1]hept-5-yl)methanone]: 68%.
The result for `O=C(c1cnc2c(-c3cnco3)cc(C3CC3)cn12)N1C[C@@H]2C[C@H]1CO2` [Example 116, (6-cyclopropyl-8-(1,3-oxazol-5-yl)imidazo[1,2-a]pyridin-3-yl)((1S,4S)-2-oxa-5-azabicyclo[2.2.1]hept-5-yl)methanone] reads 90%.

Source of the values: patent US9296746B2, “Heterocyclic compound” (TAKEDA PHARMACEUTICAL COMPANY LIMITED, priority 2012, dated 2016).
